Measurements taken from patent US20250052985A1, “SYSTEM AND METHOD FOR QUANTITATIVE PHASE IMAGING FOR MULTI-PARAMETRIC SCREENING OF TUMOR THERAPY RESPONSE” (UNIVERSITY OF UTAH RESEARCH FOUNDATION, priority 2023, published 2025).
Values joined by “and” are separate entries in the source; they are usually repeats but may differ in a detail not shown here. Identical values can stand only once. Like-named read-outs stand apart in the source and are kept apart here.

How the values were obtained:
BT-474 cells = assay: cells; settings: for Max Asymptote / Min Asymptote: BT-474, 4-parameter Hill fit of mean SGR vs concentration, one line per replicate; for Hill Slope / log10(EC50): BT-474, Hill fit; for EC50: Homo sapiens
Description: (§1) In some embodiments, breast cancer cell lines are imaged, representing diverse clinical subtypes, summarized in Table 2 below, using a QPI microscope (FIG. 1A) based on differential phase contrast (DPC) microscopy and phase reconstruction via a QPI microscope system. DPC is used for image acquisition and phase reconstruction because DPC's flexible design may be customized for high throughput phase measurements. […] As illustrated in the embodiment of FIG. 1A, a QPI microscope system 100 conducts assays in a 96-well plate (e.g., a well-plate 105) with 6-point dose response curves and up to five therapies in triplicate including solvent controls, summarized in Table 4 below. As described below, in reference to FIG. 1A, a growth response of cells is measured noninvasively using QPI via a QPI microscope system 110 before being assayed using a CTG reader 115.
(§2) FIG. 1B illustrates a timeline plot 200 showing two plates (e.g., two, separate well-plates 105) set up in parallel to measure cell viability. With reference to FIG. 1B, two plates are set-up simultaneously for each experiment. A first plate 205 is incubated for 27 hours (h) post drug exposure prior to CTG analysis (3 h equilibration+24 h of imaging), which measures cell adenosine triphosphate (ATP) content as a surrogate for cell viability. A second plate 210 is imaged for 72 h after 3 h equilibration (e.g., 75 h) and followed by CTG. […] The imaging locations are imaged for 72 h, as shown by images 1700-1715 of FIG. 7.
(§3) In some embodiments, a dose-dependent change in growth, as indicated by a change in the rate of mass accumulation or loss, is a parameter that can be extracted from QPI dose-response data. […] Individual specific growth rate measurements are indicated by points in the distribution of the graph 1200 of FIG. 2A. Blue is indicative of the DMSO control and red is indicative of doxorubicin. The black outline is a kernel density function fit to the distribution of specific growth rates for each condition (e.g., *p<0.05, **p<0.01). In some embodiments, the average SGR of each condition is fit to a sigmoid dose-response curve using a Hill equation. For example, computed logistic fit parameters using a 4-parameter Hill model via the QPI microscope system 110 for all conditions are summarized in Tables 5-8 below. To determine if there is a response, as illustrated by FIG. 2B, the QPI microscope system 110 tests goodness of fit, adjusts for degrees of freedom using an F-test at significance p<0.01 by comparison to a flat line, as an indicator of no response. For cases with a better fit to the Hill equation, the 4-parameter Hill curve may be used by the QPI microscope system 110 to determine the EC50, a measure of sensitivity to therapy because it represents the effective concentration at which 50% of the cells respond to therapy, as illustrated by FIG. 10. […] A 4-parameter Hill curve is fit to each dose response plot to extract the depth of response and EC50 for each cell/drug pair. A flat line represents no response due to failure of the F-test to reject the null hypothesis that the logistic fit is indistinguishable from a flat line. […] Each color indicates a different drug or therapy used.

MCF-7 cells = assay: cells; settings: for Hill Slope / log10(EC50): MCF-7, Hill fit; for EC50: Homo sapiens
Description: as §1, §2, §3

MDA-MB-231 cells [1] = assay: Quantitative phase imaging (QPI) growth response, MDA-MB-231; type: cell-based; parameters: DoR QPI: scale not given here; ToR 20 μM: unit not given here; settings: for Max Asymptote / Min Asymptote: MDA-MB-231, 4-parameter Hill fit of mean SGR vs concentration, one line per replicate; for EC50: Homo sapiens; for SGR (specific growth rate) / tD: one individual MDA-MB-231 cell, 2 μM doxorubicin
Description: as §1, §2, §3

MDA-MB-231 cells [2] = assay: CellTiter-Glo (CTG) ATP viability assay, MDA-MB-231; type: cell-based; settings: for Min Asymptote: MDA-MB-231, Hill fit of luminescence normalized to solvent control, one line per replicate; for EC50: Homo sapiens
Description: CTG (e.g., read by the CTG reader 115) is a cell viability assay that quantifies the amount of ATP present at the end of an experiment as an indicator of the number of live cells. The electronic controller 155 measures ATP content in each condition as a readout by a luminescent signal, which is normalized by the luminescence of the control (e.g., a control well) to determine cell viability relative to on-plate controls. In some embodiments, the CTG assay is performed by first removing 100 μL of media from each well on the well-plate 105, which is then replaced with an equal amount of CellTiter-Glo reagent (e.g., Promega, G7572). Assayed plates may be shaken at 500 RPM for 20 minutes and allowed to rest for 10 minutes. In some instances, 100 μL of volume from each well is transferred to a white 96-well plate (e.g., Perkin Elmer, 6005680). The electronic controller 155 collects luminescence data from each well using an Envision plate reader (e.g., Perkin Elmer) and normalized against the solvent control to measure ATP content. The electronic controller 155 fits a 4-parameter hill curve to the dose response to determine the EC50 and depth of response.

[3] = 24 h QPI, EC50 in μM per Table 1
[4] = 72 h QPI, EC50 in μM per Table 1

log10(EC50) (BT-474 cells; [3]): −0.2827 and −0.2235
log10(EC50) (BT-474 cells; [4]): 0.3361 and 0.3186
EC50 (BT-474 cells; BT-474, 24 h, read-out: log10(EC50), 24 h QPI, BT-474, Hill fit (converted), EC50 in μM per Table 1): 1.78 µM
EC50 (BT-474 cells; BT-474, 72 h, read-out: log10(EC50), 72 h QPI, BT-474, Hill fit (converted), EC50 in μM per Table 1): 0.475 µM
EC50 (BT-474 cells; BT-474, read-out: EC50, QPI, BT-474 cell line, QPI growth rate): 0.5 µM
log10(EC50) (MCF-7 cells; [3]): 0.2581
log10(EC50) (MCF-7 cells; [4]): 0.7197 and 0.7012
EC50 (MCF-7 cells; MCF7, 72 h, read-out: log10(EC50), 72 h QPI, MCF-7, Hill fit (converted), EC50 in μM per Table 1): 0.235 µM
EC50 (MCF-7 cells; MCF7, read-out: EC50, QPI, MCF-7 cell line, QPI growth rate): 0.2 µM
EC50 (MCF-7 cells; MCF7, read-out: EC50, SD, MCF-7 cell line, EC50 of the standard deviation): 11 µM
log10(EC50) (MDA-MB-231 cells [1]; 72 h QPI, MDA-MB-231, Hill fit, EC50 in μM per Table 1): 1.0414
EC50 (MDA-MB-231 cells [1]; MDA-MB-231, 72 h, 72 h QPI, MDA-MB-231, Hill fit, EC50 in μM per Table 1, read-out: log10(EC50) (converted)): 0.0794 µM
EC50 (MDA-MB-231 cells [1]; MDA-MB-231, MDA-MB-231 cell line, EC50 of the standard deviation, read-out: EC50, SD (converted)): 0.549 µM
EC50 (MDA-MB-231 cells [1]; MDA-MB-231, MDA-MB-231 cell line, QPI growth rate, read-out: EC50, QPI): 0.1 µM
log10(EC50) (MDA-MB-231 cells [2]; 72 h CTG, MDA-MB-231, Hill fit): 0.5401
EC50 (MDA-MB-231 cells [2]; MDA-MB-231, 24 h, 24 h CTG, MDA-MB-231, Hill fit, read-out: log10(EC50) (converted)): 1.25 µM
EC50 (MDA-MB-231 cells [2]; MDA-MB-231, 72 h, 72 h CTG, MDA-MB-231, Hill fit, read-out: log10(EC50) (converted)): 0.204 µM
EC50 (MDA-MB-231 cells [2]; MDA-MB-231, MDA-MB-231 cell line, CellTiter-Glo, read-out: EC50, CTG): 0.3 µM
SMILES: COc1cccc2c1C(=O)c1c(O)c3c(c(O)c1C2=O)C[C@@](O)(C(=O)CO)C[C@@H]3O[C@H]1C[C@H](N)[C@H](O)[C@H](C)O1 [Doxorubicin]
Max Asymptote (BT-474 cells; 24 h QPI): 0.01297 and 0.01051 and 0.00993
Min Asymptote (BT-474 cells; 24 h QPI): −0.001567 and −0.002506 and −0.002371
Hill Slope (BT-474 cells; 24 h QPI): 1.5047 and 1.6529 and 1.3096
Max Asymptote (BT-474 cells; 72 h QPI): −0.00359 and −0.003807 and −0.003696
Min Asymptote (BT-474 cells; 72 h QPI): 0.009626 and 0.009175 and 0.009318
Hill Slope (BT-474 cells; 72 h QPI): 3.7081 and 4.795 and 3.6266
DoR QPI (BT-474 cells; BT-474 cell line, depth of response, QPI): 1.4
ToR 20 μM (BT-474 cells; BT-474 cell line, time of response at 20 μM): 3.4
cluster mass tracked over time (BT-474 cells; small cluster of BT-474 cells, 2 μM, 72 h): losing mass
Max Asymptote (MCF-7 cells; 24 h QPI, MCF-7, 4-parameter Hill fit of mean SGR vs concentration, one line per replicate): 0.03024 and 0.03614 (2×)
Hill Slope (MCF-7 cells; 24 h QPI): 0.4225 and 0.5056
Min Asymptote (MCF-7 cells; 72 h QPI, MCF-7, 4-parameter Hill fit of mean SGR vs concentration, one line per replicate): 0.02487 and 0.02696 and 0.02807
Hill Slope (MCF-7 cells; 72 h QPI): 1.1171 and 1.2782 and 1.7872
SGR minimum (mean±standard deviation, SD) (MCF-7 cells; MCF-7, 20 μM, highest dose tested): −0.003+0.004 h^−1
DoR QPI (MCF-7 cells; MCF-7 cell line, depth of response, QPI): 1.1
ToR 20 μM (MCF-7 cells; MCF-7 cell line, time of response at 20 μM): −1.3
Max Asymptote (MDA-MB-231 cells [1]; 24 h QPI): 0.03123 and 0.03492 and 0.03444
Min Asymptote (MDA-MB-231 cells [1]; 24 h QPI): 0.002229 and 0.006476 and 0.003476
Hill Slope (MDA-MB-231 cells [1]; 24 h QPI, MDA-MB-231, Hill fit): 1.1528 and 1.2328 and 1.1155
Max Asymptote (MDA-MB-231 cells [1]; 72 h QPI): 0.0002323 and 0.002183
Min Asymptote (MDA-MB-231 cells [1]; 72 h QPI): 0.03291 and 0.03136
Hill Slope (MDA-MB-231 cells [1]; 72 h QPI, MDA-MB-231, Hill fit): 0.9982 and 1.1886
Hellinger distance of SGR distribution from control (MDA-MB-231 cells [1]; MDA-MB-231, 0.08 μM): greater than the threshold indicating a response
Hellinger distance of SGR distribution from control (MDA-MB-231 cells [1]; MDA-MB-231, 0.4 μM): much greater Hellinger distance from the control
reduction of heterogeneity (SD of growth rates) (MDA-MB-231 cells [1]; MDA-MB-231, 20 μM, 72 h): fourfold
growth rate and heterogeneity over time (MDA-MB-231 cells [1]; MDA-MB-231, highest concentration, FIG. 21 F): simultaneously decreases in growth rate and heterogeneity
growth rate and heterogeneity over time (MDA-MB-231 cells [1]; MDA-MB-231, middle concentrations, FIG. 21 C-E): change in growth rate over time with little to no change in heterogeneity
DoR QPI (MDA-MB-231 cells [1]; MDA-MB-231 cell line, depth of response, QPI): 1.0
ToR 20 μM (MDA-MB-231 cells [1]; MDA-MB-231 cell line, time of response at 20 μM): −3.0
SGR (specific growth rate) (MDA-MB-231 cells [1]; abrupt decrease in mass during cell death): -0.217 h⁻¹
tD (MDA-MB-231 cells [1]; first 10 h): 19 h
SGR (specific growth rate) (MDA-MB-231 cells [1]; first 10 h, robust growth): 0.0358 h⁻¹
tD (MDA-MB-231 cells [1]; next 26 h): 66 h
SGR (specific growth rate) (MDA-MB-231 cells [1]; next 26 h, reduced growth): 0.0105 h⁻¹
SGR (specific growth rate) (MDA-MB-231 cells [1]; subsequent gradual loss of mass): -0.0033 h⁻¹
Hill Slope (MDA-MB-231 cells [2]; 24 h CTG, MDA-MB-231, Hill fit): 1.125
Min Asymptote (MDA-MB-231 cells [2]; 24 h CTG): 0.4072
Hill Slope (MDA-MB-231 cells [2]; 72 h CTG, MDA-MB-231, Hill fit): 0.8064 and 0.7906
Min Asymptote (MDA-MB-231 cells [2]; 72 h CTG): 0.01711 and 0.03777 (2×)
DoR CTG (MDA-MB-231 cells [2]; MDA-MB-231 cell line, depth of response, CellTiter-Glo): 1.0
